Assays:
[1] = test system: D-serine; test: PK-PD evaluation in rats: D-serine levels in cerebellum after oral dosing; type: in vivo; details: rat cerebellum, 6 hours after PO dosing, dose normalized to 10 mg/kg of the acid; mean ± spread (n)
Protocol: Rats (Harlan male Sprague) (N=3) were dosed orally with an amount of test compound, suspended in 45% (w/v) hydroxy-β-cyclodextrin vehicle, dose normalized to 10 mg/kg of the corresponding carboxylic acid. Additional male cannulated rats (N=3) were dosed orally with the parent carboxylic acid, suspended in 45% (w/v) hydroxy-β-cyclodextrin vehicle, at 10 mg/kg. Animals were sacrificed at pre-determined time points (e.g., 0.5, 2 and/or 6 hours post administration) with an N=3 at each time point. At sacrifice, trunk blood was collected into tubes containing potassium EDTA, which were then centrifuged to permit isolation of plasma. The cerebellum was dissected from each animal. Plasma and cerebellum samples were stored at −80° C. until samples were analyzed using a SCIEX API2000 or SCIEX API5000 LC/MS/MS. Samples were analyzed for the amount of corresponding parent acid, D-serine, and/or the amount of test compound.
Conversion of test compounds to 4H-furo[3,2-b]pyrrole-5-carboxylic acid (“acid”; 77) in rats was evaluated according to General Procedure 12. 4H-furo[3,2-b]pyrrole-5-carboxylic acid and D-serine levels in plasma and cerebellum were measured. Animals were sacrificed at 6 hours post administration. In Table 6, “[D-serine] cerebellum” refers to D-serine levels, in nmol/g, in the rat cerebellum. In Table 6, “[acid] cerebellum” refers to the concentration, in μM, of the 4H-furo[3,2-b]pyrrole-5-carboxylic acid in the cerebellum. In Table 6, “[acid] plasma” refers to the concentration, in μM, of the 4H-furo[3,2-b]pyrrole-5-carboxylic acid in the plasma. The row labeled “acid”, denotes the data obtained from dosing 4H-furo[3,2-b]pyrrole-5-carboxylic acid. The row labeled “vehicle” denotes the data obtained from dosing vehicle, and the remaining row in the table denote the data obtained from dosing the test compounds.

[2] = Hydrolysis rate of test compounds in pH 7.4 and 2.0 aqueous solution; type: physicochemical; details: HPLC; for Hydrolysis rate at pH 7.4: 0.05 M sodium phosphate buffer pH 7.4, over 6 hours; for Hydrolysis rate at pH 2.0: water adjusted with phosphoric acid to pH 2.0, over 2 hours
Protocol: 10 mM DMSO solutions of test compounds were diluted with a 0.05 M sodium phosphate buffer (pH 7.4) or water adjusted with phosphoric acid to pH 2.0, with a final concentration of 0.013 mg/mL. Samples were analyzed over either 2 or 6 hours, by HPLC.
The amount of test compound and the corresponding acid were determined. The rate of conversion of the test compound was calculated based on formation of the corresponding acid and loss of parent.
The rate of hydrolysis of test compounds to 4H-furo[3,2-b]pyrrole-5-carboxylic acid was evaluated in pH 7.4 aqueous solution over 6 hours, and in pH 2.0 aqueous solution over 2 hours, according to General Procedure 14.

SMILES | Hydrolysis rate at pH 7.4 [2] | Hydrolysis rate at pH 2.0 [2] | [D-serine] cerebellum [1]
CC(OC(=O)c1cc2occc2[nH]1)OC(=O)C(C)C (centres unmarked) [compound 35, 1-(isobutyryloxy)ethyl 4H-furo[3,2-b]pyrrole-5-carboxylate] | 3.46%/hr |  | 16 ± 0.9(3) nmol/g
CN(C)C(=O)COC(=O)c1cc2occc2[nH]1 [compound 20, 2-(dimethylamino)-2-oxoethyl 4H-furo[3,2-b]pyrrole-5-carboxylate] | No hydrolysis | No hydrolysis | 19 ± 0.8(6) nmol/g
O=C(OCC1CCCO1)c1cc2occc2[nH]1 (centres unmarked) [compound 10, (tetrahydrofuran-2-yl)methyl 4H-furo[3,2-b]pyrrole-5-carboxylate] | No hydrolysis | No hydrolysis | 19 ± 2.0(6) nmol/g
O=C(OCCN1CCOCC1)c1cc2occc2[nH]1 [compound 30, 2-morpholinoethyl 4H-furo[3,2-b]pyrrole-5-carboxylate] | No hydrolysis | No hydrolysis | 14 ± 1.2(3) nmol/g

The next lines start with results.

Hydrolysis rate at pH 7.4 [2] | Hydrolysis rate at pH 2.0 [2] | SMILES | [D-serine] cerebellum [1]
No hydrolysis | No hydrolysis | O=C(OCC(=O)N1CCOCC1)c1cc2occc2[nH]1 [compound 21, 2-morpholino-2-oxoethyl 4H-furo[3,2-b]pyrrole-5-carboxylate] | 19 ± 1.0(6) nmol/g
No hydrolysis | No hydrolysis | O=C(OCC(=O)N1CCC1)c1cc2occc2[nH]1 [compound 19, 2-(azetidin-1-yl)-2-oxoethyl 4H-furo[3,2-b]pyrrole-5-carboxylate] | 17 ± 0.7(3) nmol/g

— patent US20110034434A1, “PRODRUGS OF FUSED HETEROCYCLIC INHIBITORS OF D-AMINO ACID OXIDASE” (SEPRACOR INC., priority 2009, published 2011)
